Data from US20060009425A1, “Oral formulations of paricalcitol” (priority 2004, published 2006).

Assays:
[1] = Phase 3 once daily study, safety (Example 8)
Method: (§1) Additionally, safety was assessed by the incidence of adverse events, the change from baseline in chemistry, hematology and urinalysis laboratory variables, the change from baseline in subject vital signs, and progressive changes in renal function observed via changes in eGFR.
All randomized subjects who received at least 1 dose of study drug were used in safety analyses.
Secondary safety analyses also consisted of an analysis of “treatment-emergent” adverse events (i.e., adverse events with an onset date on or after the date the first dose of study drug was taken). Adverse events were summarized by body system and COSTART term according to the COSTART V adverse event-coding dictionary. Comparisons of the percentage of subjects experiencing an adverse event between the Paricalcitol and placebo treatment groups were performed using a Fisher's exact test.

[2] = human, in vivo, 24 weeks
Method: as §1
All randomized subjects who received at least 1 dose of study drug were used in safety analyses. […] This comparison was performed using a Fisher's exact test. Secondary safety analyses were performed comparing changes/percent changes from baseline between the paricalcitol and placebo treatment groups using a one-way ANOVA with treatment group as the factor for the following variables: hematology, complete chemistry, and urinalysis variables; 24-hour urine collections, eGFR, urinary calcium/creatinine ratio, cardiovascular markers, and vital signs. Secondary safety analyses also consisted of an analysis of “treatment-emergent” adverse events (i.e., adverse events with an onset date on or after the date the first dose of study drug was taken). Adverse events were summarized by body system and COSTART term according to the COSTART V adverse event-coding dictionary. Comparisons of the percentage of subjects experiencing an adverse event between the paricalcitol and placebo treatment groups were performed using a Fisher's exact test.

[3] = test system: serum parathyroid hormone (PTH) levels; assay: Phase 3 placebo-controlled TIW study, iPTH reduction (Example 7); assay type: in vivo, human
Text: Methodology: This was a Phase 3, prospective, randomized, placebo-controlled, double-blind, 24-week Treatment Phase, multi-center study in CKD (Stages 3 and 4) subjects with elevated PTH levels (≧150 pg/mL). Subjects were randomized in an equal ratio (1:1) to 1 of 2 treatment groups: paricalcitol capsule (Group 1) and placebo (Group 2). Potential subjects underwent procedures to determine their baseline intact PTH (iPTH), calcium, and phosphorus levels for eligibility to receive treatment.
During the Treatment Phase, subjects were to self-administer study drug 3 times weekly, on Monday, Wednesday and Friday, for a total of 24 weeks. The initial dose was 2 or 4 mcg (depending on baseline iPTH levels). Procedures to be performed during the Treatment Phase included vital signs, chemistry and hematology, urinary pyridinoline, urinary deoxypyridinoline, serum bone-specific alkaline phosphatase, serum osteocalcin, urinalysis, spot urine for calcium/creatinine ratio, and recording of adverse events and concurrent medications. Serum iPTH, calcium, phosphorus, and albumin were measured every 2 weeks. Dose adjustments were to be made according to these chemistry results for iPTH, calcium, and phosphorus. Doses may have been increased in 2 mcg increments every 4 weeks.
Efficacy: The primary efficacy endpoint was the achievement of 2 consecutive ≧30% decreases from baseline iPTH levels. The secondary efficacy analyses include change and percent change from baseline analyses in iPTH and change from baseline analyses in biochemical bone markers.
The Intent-To-Treat population (Full Analysis Set) was defined as all randomized subjects with a baseline iPTH and at least 2 on-treatment iPTH measurements. This population was used in the primary efficacy analysis.

[4] = Bioavailability of capsule vs intravenous formulation, end-stage renal disease on hemodialysis (Example 3); assay type: in vivo; details: human, plasma
Method: Methodology: This was a Phase I, open-label, randomized, single-dose, two-period, crossover, nonfasting study. Subjects were randomized into two sequence groups of Regimens A and B. The two nonfasting study regimens were:
The intravenous formulation contained 2-10 micrograms/milliliter of paricalcitol, 30% (v/v) propylene glycol, 20% (v/v) ethanol and 50% (v/v) water.
Both regimens were administered at the end of a regular hemodialysis session on Study Day 1, 30 minutes after a breakfast was served. […] Fourteen subjects participated in the study. […] A washout interval of at least 7 days separated the doses of the two study periods. […] Plasma concentrations of paricalcitol were determined using a validated liquid chromatography—tandem mass spectrometric assay method at Abbott Laboratories, Abbott Park, Ill. […] The lower limit of quantification of paricalcitol was 0.02 ng/mL using a 0.6 mL plasma sample.
Pharmacokinetics: The pharmacokinetic parameter values of paricalcitol were estimated using noncompartmental methods. […] The volume of distribution for intravenous administration (Vdβ) and apparent volume of distribution for oral administration (Vdβ/F) value were calculated by dividing the clearance by β. […]

[5] = test system: biochemical bone activity markers; assay: Phase 3 once daily study, biochemical bone activity markers (Table E); assay type: in vivo, human; details: CKD Stage 3 and 4, daily (QD) treated subjects (Table E)
Method: Serum bone-specific alkaline phosphate and serum osteocalcin are considered more sensitive bone markers to evaluate degree of bone remodeling than urinary bone marker. […] As shown in Examples 5-7 and Tables C (Example 5), Table D (Example 6) and Table E (Example 7), certain biochemical bone activity marker variables were analyzed in CKD Stage 3 and 4 subjects. These subjects received treatment with the oral formulations of the present invention or a placebo. The bone markers examined in these subjects were serum osteocalcin, serum bone-specific alkaline phosphatase, urinary pyridinoline, and deoxypyridinoline. If more than 1 biochemical bone activity marker measurement existed for a subject on a particular day, the higher measurement was considered to be that subject's biochemical bone activity marker measurement for that day. […] The Final Visit measurement was defined as the last biochemical bone activity marker measurement following the first dose of study drug.
The Week 11 Visit measurement was defined as the biochemical bone activity marker measurement on the day closest to the Week 11 scheduled visit, for which the possible measurements to choose from were those collected within 64 and 77 days following the first dose of study drug.
Changes from baseline to Week 11 Visit and to Final Visit in biochemical bone activity markers were compared between oral paricalcitol and placebo using an ANOVA with treatment as the factor on the combined Phase 3 all treated subject population (Table F). Also, the changes from baseline to Week 11 Visit and to Final Visit were compared between oral paricalcitol and placebo using an ANCOVA with baseline as the second factor on the combined Phase 3 all treated subject population (Table G).
During the Treatment Phase, subjects were to self-administer study drug once daily for a total of 24 weeks. The initial dose was 1 or 2 mcg (depending on baseline iPTH levels). Procedures to be performed during the Treatment Phase included vital signs, chemistry and hematology, urinary pyridinoline, urinary deoxypyridinoline, serum bone-specific alkaline phosphatase, serum osteocalcin, urinalysis, spot urine for calcium/creatinine ratio, and recording of adverse events and concurrent medications. Serum iPTH, calcium, phosphorus, and albumin were measured every 2 weeks. Dose adjustments were to be made according to these chemistry results for iPTH, calcium, and phosphorus. Doses may have been increased in 1 mcg increments every 4 weeks. Dose reductions were to occur according to a protocol-specified algorithm. However, dosing could have been adjusted any time if, in the judgment of the Investigator, a risk to subject safety existed.

C[C@H](/C=C/[C@H](C)C(C)(C)O)[C@H]1CC[C@H]2/C(=C/C=C3C[C@@H](O)C[C@H](O)C3)CCC[C@]12C [Paricalcitol, 19-nor-1α,3β,25-trihydroxy-9,10-secoergosta-5(Z); 7(E),22(E)-triene]
safety and tolerability ([1]; CKD (Stages 3 and 4) subjects): safe and well tolerated | mean calcium values, range over scheduled visits ([1]; Treatment Phase): 9.24 to 9.54 mg/dL | subjects reporting serious adverse events ([1]; Treatment and Follow-Up Phases): 7 subjects | deaths ([1]; hepatic encephalopathy, considered not related to study drug): 1 subject | adverse event incidence: abdominal pain ([1]; in vivo): 9% | adverse event incidence: accidental injury ([1]; in vivo): 17% | adverse event incidence: allergic reaction ([1]; in vivo): 9% | adverse event incidence: cough increased ([1]; in vivo): 9% | adverse event incidence: diarrhea ([1]; in vivo): 11% | adverse event incidence: edema ([1]; in vivo): 11% | adverse event incidence: nausea ([1]; in vivo): 9% | adverse event incidence: pharyngitis ([1]; in vivo): 14% | adverse event incidence: rash ([1]; in vivo): 11% | adverse event incidence: vomiting ([1]; in vivo): 11% | phosphorus, mean change from baseline to Final Visit ([1]; in vivo): -0.13 mg/dL | serum calcium, mean change from baseline to Last On-Treatment Visit ([1]; in vivo): 0.21 mg/dL | subjects terminated prematurely due to adverse events ([1]; in vivo): 4 subjects | subjects who developed clinically meaningful hypercalcemia (at least 2 consecutive calcium values >10.5 mg/dL) ([1]; in vivo): 0/35 | adverse events considered not related to study drug administration ([1]; once daily, 24 weeks): 67% | adverse events mild or moderate in severity ([1]; once daily, 24 weeks): 93% | subjects with treatment-emergent adverse events ([1]; once daily, 24 weeks): 91% | adverse event incidence: viral infection [2]: 10% | subjects with 4 consecutive ≧30% decreases from baseline in iPTH ([3]; 26/32, exploratory analysis): 81% | subjects with 2 consecutive ≧30% decreases from baseline in iPTH ([3]; 29/32, TIW, 24 weeks, CKD Stages 3 and 4): 91% | 30% mean reduction in iPTH occurred by ([3]; TIW): ≤ 9 Week | mean change from baseline in iPTH at the Final Visit ([3]; TIW, 24 weeks): -80.7 pg/mL | mean change from baseline in iPTH at the Last On-Treatment Visit ([3]; TIW, 24 weeks): -83.1 pg/mL | percent decrease in iPTH at the Final Visit ([3]; TIW, 24 weeks): 30.3% | percent decrease in iPTH at the Last On-Treatment Visit ([3]; TIW, 24 weeks): 33.4% | maximum decrease from baseline in iPTH ([3]; observed at Week 17): −48.2% | half-life ([4]; 0.24 ug/kg, 0.24 μg/kg single dose, hemodialysis, harmonic mean ± pseudo-standard deviation): ~14 h | bioavailability ([4]; 0.24 μg/kg, single oral dose, nonfasting, end-stage renal disease on hemodialysis, read-out: estimated absolute bioavailability): 78.8% | Serum Bone-Specific Alkaline Phosphatase, Change from Baseline (SE) to Final [5]: −7.575 (1.3976) mcg/L | Serum Bone-Specific Alkaline Phosphatase, Change from Baseline (SE) to Week 11 [5]: −5.383 (1.0482) mcg/L | Serum Osteocalcin, Change from Baseline (SE) to Final [5]: −27.07 (5.544) ng/mL | Serum Osteocalcin, Change from Baseline (SE) to Week 11 [5]: −0.22 (4.968) ng/mL | Urinary Deoxypyridinoline, Change from Baseline (SE) to Final [5]: 0.0100 (0.01392) nmol/mg Creat | Urinary Deoxypyridinoline, Change from Baseline (SE) to Week 11 [5]: −0.0216 (0.01018) nmol/mg Creat | Urinary Pyridinoline, Change from Baseline (SE) to Final [5]: 0.26 (4.452) nmol/mmol Creat | Urinary Pyridinoline, Change from Baseline (SE) to Week 11 [5]: −5.27 (3.884) nmol/mmol Creat
